According to US4215111A, “Peptides having ubiquitin-like activity” (Ortho Pharmaceutical Corporation, priority 1979, dated 1980):
Square brackets hold non-standard residues; d marks the D form. Peptide text beside a SMILES is read from it. Sar = CNCC(=O)O

Columns and labels:
[1] = system: Thy-1+ T-lymphocytes and complement receptor (CR+) B-lymphocytes differentiation; assay: In vitro induction of Thy-1+ T cell and CR+ B cell differentiation from nu/nu mouse spleen precursor cells; format: cell-based, nu/nu mice (BALB/c background); details: for Active Concentration Range: induction of Thy-1+ T-lymphocytes and CR+ B-lymphocytes in vitro
Method: To determine the activity and characteristics of the peptide of Example I, determinations were carried out on healthy 5-6 week nu/nu mice of both sexes, the mice being bred on a BALB/c background (thymocytes expressing Thy-1.2 surface antigen) and maintained under conventional conditions. For the antisera, anti Thy-1.2 sera were prepared in Thy-1 congenic mice.
For the induction in vitro of Thy-1^+ T cells or CR^+ B cell differentiation, the induction of thymocyte differentiation from prothymocytes in vitro was performed as described by Komuro and Boyse, (Lancet, 1, 740, 1973), using the acquisition of Thy-1.2 as a marker of T cell differentiation. The induction of CR^+ B cell differentiation from CR^- B cell precursors in vitro was performed under similar conditions using as the assay criterion, the capacity of CR^+ B cells to bind sheep erythrocytes coated with subagglutinating quantities of rabbit antibody and nonlytic complement. Spleen cell populations from healthy nu/nu mice fractionated on discontinuous bovine serum albumin gradients were used as the source of both precursor types (Thy-1^- and CR^-) because they have few or no Thy-1^+ cells and low numbers of CR^+ cells.

[2] = reference application; cited from earlier work

NCCCC[C@H](NC(=O)[C@@H](N)CCC(N)=O)C(N)=O [Example I, H-GLN-LYS-NH2] (H-Gln-Lys-NH2)
potency relative to the thymopoietin pentapeptide [1]: same potency as the thymopoietin pentapeptide
ubiquitin-like biological activity (in words) ([1]; induction of Thy-1+ T and CR+ B lymphocyte differentiation): selectivity of actions similar to that of ubiquitin

CNCC(=O)N[C@@H](CCC(N)=O)C(=O)N[C@@H](CCCCN)C(N)=O [IV, H--SAR--GLN--LYS--NH2] (H-[Sar]-Gln-Lys-NH2)
Active Concentration Range [1]: 1 to 10 µg/mL

CNCC(=O)N(C)CC(=O)N(C)CC(=O)N[C@@H](CCC(N)=O)C(=O)N[C@@H](CCCCN)C(N)=O [VI, H--SAR--SAR--SAR--GLN--LYS--NH2] (H-[Sar][Sar][Sar]QK-NH2)
potency relative to the thymopoietin pentapeptide [1]: approximately 10 million

CNCC(=O)N(C)CC(=O)N(C)CC(=O)N(C)CC(=O)N[C@@H](CCC(N)=O)C(=O)N[C@@H](CCCCN)C(N)=O [VII, H--SAR--SAR--SAR--SAR--GLN--LYS--NH2] (H-[Sar][Sar][Sar][Sar]QK-NH2)
Active Concentration Range [1]: 1e-06 to 0.0001 µg/mL

H-ALA-ASN-ILE-GLN-LYS-OH (H-ANIQK-OH)
concentration at which activity is possessed [2]: 0.1 µg/mL

H-TYR-ALA-ILE-GLN-LYS-OH (H-YAIQK-OH)
concentration at which activity is possessed [2]: 0.1 µg/mL

H-TYR-ASN-ALA-GLN-LYS-OH (H-YNAQK-OH)
concentration at which activity is possessed [2]: 0.1 µg/mL
